These results are taken from patent publication US20140309291A1, “Compositions and Methods for Increasing Stress Resilience” (The Children's Hospital of Philadelphia, priority 2011, published 2014).

One assay has as its target S1P3 receptor (Homo sapiens, UniProt Q99500). Particulars: multiple Sph receptors, including the S1P3 receptor; cited from earlier work.
Assay [1] in a line: social interaction test of anxiety after social defeat stress. The format is in vivo, rats. Here is the method: Animals were exposed to 7 days of social defeat stress. During these 7 days of defeat stress the average latency to defeat was observed. Based on this latency to defeat, animals were either classified as short latency (SL, defeat <300 seconds) or long latency (LL, defeat >300 seconds).
Following 7 days of defeat, the SL and LL groups were divided into two separate treatment groups receiving either vehicle or FTY720, 1 hour prior to social defeat stress on the following 3 days. Defeat latencies were recorded. Additionally, 48 hours following the end of social defeat stress, animals were tested in the social interaction test of anxiety.

Assay [2] is described as follows: social defeat paradigm (defeat latency). The format is in vivo, rats. Particulars: SL (short latency, vulnerable) animals; drug given 1 hour prior to social defeat stress on 3 days following 7 days of defeat; p=0.0726 (FIG. 2A). An excerpt:
The social defeat paradigm used in these studies was modified from the resident-intruder model (Miczek, K. A. (1979) Psychopharmacology (Berl) 60:253-259). Rats were randomly assigned to either a social defeat or control group for a consecutive 7 days (Bhatnagar et al. (2006) J. Neuroendocrinol., 18:13-24; Buwalda et al. (1999) J. Neuroendocrinol., 11:513-520). During each episode of social stress, a rat was placed into the home cage territory of an unfamiliar Long-Evans resident previously screened for high aggression (Bhatnagar et al. (2006) J. Neuroendocrinol., 18:13-24; Buwalda et al. (1999) J. Neuroendocrinol., 11:513-520). […] After defeat, a wire mesh enclosure was placed in the cage to prevent physical contact between the resident and intruder but allowing visual, auditory, and olfactory contact for the remainder of the 30-minute defeat session. Latency to assume a submissive posture (defeat) was recorded and averaged over the seven daily defeat exposures. […] Rats were returned to their home cage after each session, and body weight was recorded on days 1 and 8. […]
Following 7 days of defeat, the SL and LL groups were divided into two separate treatment groups receiving either vehicle or FTY720, 1 hour prior to social defeat stress on the following 3 days. Defeat latencies were recorded. […]

Structures are written as SMILES.

Sequence of S1P3 receptor (Q99500 whole entry): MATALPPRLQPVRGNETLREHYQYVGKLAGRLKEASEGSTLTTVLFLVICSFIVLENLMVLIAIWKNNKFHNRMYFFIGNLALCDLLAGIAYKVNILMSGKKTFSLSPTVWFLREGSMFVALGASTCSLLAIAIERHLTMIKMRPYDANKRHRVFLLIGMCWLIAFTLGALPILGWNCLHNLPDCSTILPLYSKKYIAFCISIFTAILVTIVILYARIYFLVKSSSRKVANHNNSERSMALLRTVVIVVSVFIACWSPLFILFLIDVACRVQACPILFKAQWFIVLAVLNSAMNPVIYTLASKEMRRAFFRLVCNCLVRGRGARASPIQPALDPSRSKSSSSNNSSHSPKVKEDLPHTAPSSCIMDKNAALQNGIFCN

Consider `CCCCCCCCc1ccc(CCC(N)(CO)CO)cc1` [FTY720], for which the “agonist activity at Sph receptors” value at S1P3 receptor was “potent agonist”. The social interaction time entry in assay [1] (SL animals, tested 48 hours following the end of social defeat stress, p=0.0049 (FIG. 2B)) is given as “prevented the decreased interaction time”. The “effect of the drug in resilient and control animals” value in assay [1] (resilient LL rats or control rats) is on record as “no effects”. Besides, the defeat latency entry in assay [2] is on record as “tended to increase defeat latency of SL animals to the level of LL animals”.
